Experimental data from a melting point compilation (Tetko et al.; mined from patent text by program, amines drawn as free bases though some values may be those of a salt).
Counter-ions that a name gives are not always drawn. Residues, ends and D or L forms follow the SMILES beside them. *: point of attachment. Tfa = O=C(C(F)(F)F)*

| SMILES | melting point [°C] |
| --- | --- |
| CNC(=O)[C@@H](N[C@@H](C)c1ccccc1)C(C)(C)C | 107 to 108 |
| COC(=O)/C=C/C=C(/c1ccc(OC)cc1)c1cccs1 | 97 to 99 |
| Cc1c(CNCC(C)C)[nH]c2c(C)c(NC(=O)c3ccc(OC[C@@H]4CCCO4)cc3)ccc12 | 118 to 119 |
| COC1CCC2C3CCC4CC(O)CCC4(C)C3CCC12C (stereo not drawn) | 150 to 152 |
| CC(C)c1nn(-c2ccc(C(F)(F)F)cn2)cc1CCCCOS(C)(=O)=O | 87 to 89 |
| CC(C)=CCC/C(C)=C/COCC(=O)c1cc(C(C)(C)C)c(O)c(C(C)(C)C)c1 | 50 |
| CCC(=O)Oc1cccc2c1C(=O)c1c(OC(=O)CC)cccc1C2C(=O)CC(C)C | 124 |
| COc1cc2c(c(OC)c1OC)C1=C(CCC1)C(=O)CC2 | 101 to 102 |
| Clc1ccc([C@H]2CC[C@H](CBr)CC2)cc1 | 36 to 38 |
| O=C1OC(=O)c2ncc([N+](=O)[O-])cc21 | 85 to 91 |
| CC(=O)CCCCC(=O)Nc1ccc(CC(NC(C)=O)C(=O)NCC(=O)OCc2ccccc2)cc1 (stereo not drawn) | 178 to 180 |
| COc1ccc(C2C(C#N)=C(N)OC3=C2C(=O)CC(C)(C)C3)cc1 (stereo not drawn) | 197 to 200 |
| CC1(C)CC(=O)CC(C)(C)N1SSSSN1C(C)(C)CC(=O)CC1(C)C | 148 to 150 |
| O=C(O)C1CCc2c(oc3cccc(Cl)c23)C1 (stereo not drawn) | 189 to 190 |
| Nc1ncnc2c1ncn2Cc1nc2ccc(Cl)cc2c(=O)n1-c1ccccc1Cl | 294 to 295 |
| CCOC(=O)N1CCN(c2c(F)cc([N+](=O)[O-])c(NC3CC3)c2C)CC1 | 97 to 98 |
| CCc1c(Br)c(C#N)nn1C | 72 to 74 |
| CC(C)(C)c1cc(N2CCN(C(=O)c3ccc(N)cc3)C2=O)cc(C(C)(C)C)c1O | > 260 |
| CCCNCC(O)c1ccc(F)cc1 (stereo not drawn) | 58.6 to 78.8 |
| CCCCCCCCCCCCCCCCCCN(C)[Si](C)(C)C | 35 to 40 |
| C=C(C)c1nn(-c2c(Cl)cc(C(F)(F)F)cc2Cl)cc1C1CC1(Br)Br (stereo not drawn) | 86.5 to 88.2 |
| CC(C)CCCC(C)Cc1nc2c3ccsc3c3sccc3c2nc1CC(C)CCCC(C)C (stereo not drawn) | 57.5 to 58.7 |
| CCc1cc(C)cc(CC)c1C(C(N)=O)C(N)=O | 184 to 186 |
| OCCCCCCCCCCCCN1CCC(CNC[C@H](O)COc2cccc3[nH]c4ccccc4c23)CC1 | 110 |
| COc1ccc(CC(C)NCC(O)c2cccc(Cl)c2F)cc1 (stereo not drawn) | 95 to 101 |
| CC(=O)n1cc(Cl)c(-c2cccc(Cl)c2Cl)c1 | 97 |

| SMILES | melting point [°C] |
| --- | --- |
| COC(=O)C(=NO)c1nc2c(C)c(Cl)ccc2oc1=O | 190 to 191 |
| COc1ccc(CN2CCNCC2)cc1 | 99 to 101 |
| NS(=O)(=O)c1ccsc1C(=O)OC1COC1 | 158 to 160 |
| CC(C)(C)c1cc(C(=O)NN(C(=O)O)C(C)(C)C)cc(C(C)(C)C)c1O | 196 |
| C=C(C)C(=O)c1ccc2c(c1)oc(=O)n2C | 127 |
| Cc1ccc(O)c(Cn2c(NCCCN3CCOCC3)nc3ccc(CNc4c(C)cc(CCC#N)cc4C)cc32)n1 | 114 |
| CN(Cc1nc(-c2cc(C(C)(C)C)c(O)c(C(C)(C)C)c2)cs1)C(=O)OC(C)(C)C | 126 to 127 |
| N#CC(C=N)CC(=O)c1ccccc1F (stereo not drawn) | 120 to 122 |
| CCOC(=O)Nc1ccc(C(=O)OC)cc1 | 159 to 162 |
| COc1cc(C(O)CS(C)(=O)=O)cc(OC)c1-n1cccc1 (stereo not drawn) | 192 |
| CCNC(=O)c1c([Si](C)(C)C)ccc(/C=C/[N+](=O)[O-])c1Cl | 104 to 106 |
| O=C(Oc1ccc(Oc2ccc(C(F)(F)F)cn2)cc1)N1CCN(c2cnccn2)CC1 | 160 to 161 |
| O=c1ccoc2cc(OCCCCCl)ccc12 | 75 to 78 |
| O=C(O)CNC(=O)CNC(=O)C(F)(F)F (Tfa-Gly-Gly-OH) | 185 |
| C=CCn1c(=O)c2[nH]c(/C=C/c3cc(OC)c(OC)c(OC)c3)nc2n(CC=C)c1=O | 253 to 255 |
| O=[N+]([O-])OCC#CCO | 107 to 110 |
| Cc1nc(O)c([N+](=O)[O-])c(Cl)n1 | 194 to 196 |
| CSc1sc(-c2cccnc2)c2c1-c1oncc1C(C)(C)C2 | 123 to 125 |
| CC(C)(C)c1ccc(/C=N/OCCOc2ccc(C(=O)O)c(OC(=O)c3ccc(C(C)(C)C)cc3)c2)cc1 | 148 to 150 |
| COC(=O)C1=C(C)NC(C)=C(C(=O)OCC2CCCO2)C1c1cccc(F)c1 (stereo not drawn) | 66 to 68 |
| CC(C)n1c(=O)sc2cc(N)ccc21 | 146 to 148 |
| C=CC(=O)OCc1cn(CCCCCCCCCCCC)nn1 | 50 to 52 |
| Clc1ccc2c(c1)N(CC1CN3CCC1CC3)c1ccccc1S2 (stereo not drawn) | 122 |
| Cc1nc2n(c(=O)c1CCO)CCCS2 | 155 |
| CCOCC1COc2c(cc3ncc(C(=O)O)c(O)c3c2Cl)O1 (stereo not drawn) | 266 to 267 |
| CCCCCCCCCCCCCCCC(=O)OCC(CO)CCn1cnc2c(=O)[nH]c(N)nc21 (stereo not drawn) | 183 to 191 |

Now from value to molecule:

| melting point [°C] | SMILES |
| --- | --- |
| 174 | Cc1c(C(=O)OCc2ccccc2)sc2ccc3[nH]c4c(c3c12)CN(C)CC4 |
| 133 to 136 | Cc1ncccc1C(=O)NCC1CCN(C[C@H]2COc3ccc(Cl)cc3O2)CC1 |
| 164 to 173 | O=C(O)c1cc2cc(Cl)ccc2nc1NC(Cc1ccc(C#Cc2ccccc2)cc1)C(=O)O (stereo not drawn) |
| 166 to 167 | COc1ccc(CSc2nnc(-c3ccnc(N)c3)o2)cc1F |
| 244 | CC(C)n1nc(-c2cnc(N)nc2-c2c(F)cccc2F)ccc1=O |
| 198 to 199 | O=C(c1cc2cccc(NS(=O)(=O)c3cccs3)c2[nH]1)N(Cc1ccccc1)Cc1ccccc1 |
| 241 to 243 | O=C1CC=C2c3ccc(Cl)cc3CCC2N1 (stereo not drawn) |
| 220 to 222 | O=[N+]([O-])c1ccc(-c2ccc(S(=O)c3ccc(Cl)c([N+](=O)[O-])c3)cc2)cc1 (stereo not drawn) |
| 176 to 177 | Cc1cc(COc2nn(Cc3ccccc3)cc2C(=O)O)ccc1OCc1nc(-c2ccco2)oc1C |
| 227 to 228 | Cc1cc(NC(=O)NC2=C(c3ccccc3)c3ccccc3CS2)cc(C)c1O |
| 123 to 124 | CC(C)Oc1ccc2c(c1)Cc1ccccc1C2=O |
| 134 to 138 | COc1ccc(CCNc2nc(N)c(N)c(N)n2)cc1 |
| 210 to 212 | O=C(Nc1ccc2nc(CN3CCCC3)ccc2c1)c1ccc(N2CCCCC2=O)cc1 |
| 144 to 145 | CCCCC(=O)c1c(-c2ccc3cc(OC(Cc4ccccc4)C(=O)O)ccc3c2)oc2ccccc12 (stereo not drawn) |
| 163 to 165 | ClCCc1c[nH]c(-c2ccc(OCc3ccccc3)cc2)n1 |
| 300 | c1ccc(-c2ncc(-c3cnc(-c4ccncc4)[nH]3)cn2)cc1 |
| 79 to 82.4 | COC(=O)c1cccc(/C=C/C(=O)Nc2ccccc2NC(=O)OC(C)(C)C)c1 |
| 120 to 121 | CC(C)(C(=O)C(Oc1ccc(Cl)cc1Cl)n1cncn1)C(Cl)Cl (stereo not drawn) |
| 113 to 115 | O=S(=O)(Nc1ccc2c(OCc3cccc(Br)c3)cccc2c1)C(F)(F)F |
| 162 to 164 | CN(C)Cc1cc2ccc(C(=O)NNC(=O)CSCCOc3ccccc3)cc2o1 |
| 220 to 222 | CC(=O)N1CCN(CC(=O)Nc2nc(-c3ccccc3)c(-c3ccc(=O)n(C(C)C)n3)s2)CC1 |
| 79 to 82 | ClC1c2ccccc2CSc2ccccc21 (stereo not drawn) |
| 253 to 255 | CN(N=Cc1ccccc1C(=O)O)c1nc2ccccc2o1 |
| 130 to 131 | CC(C)Nc1cccnc1N(C)CCOC(=O)c1cc2ccccc2[nH]1 |
| 89 to 90 | O=C(C=Cc1ccncc1)c1cccc(C(F)(F)F)c1 |
| 157 to 158 | Cc1ccc(S(=O)(=O)c2nc(C)c(Br)c(C)n2)cc1 |

| melting point [°C] | SMILES |
| --- | --- |
| 138 to 139 | CCc1ccc(S(=O)(=O)Nc2cccnc2Nc2ccccc2)cc1 |
| 145 to 147 | O[C@H]1c2cc(OCc3cccnc3)ccc2OC[C@H]1Cc1cccnc1 (relative stereo) |
| 141 to 144 | COC(=O)/C=C/c1cncc(-c2ccc(C)cc2)c1 |
| 115 to 116 | Cc1cccc(-n2ccc(=O)c(-c3ccnn3-c3ccccc3)n2)c1 |
| 228 to 229 | NS(=O)(=O)c1ccc(-c2oc3ccc(F)cc3c(=O)c2-c2ccccc2)cc1 |
| 134 to 135 | CNc1cccc(NS(=O)(=O)c2ccc(N)cc2)c1 |
| 166 to 168 | COC1CCN2C(=O)c3cccc(NC(=O)Nc4ccccn4)c3C2C1 (stereo not drawn) |
| 149 | COc1ccc(C2=C(C#N)C(c3ccccc3OC)c3c[nH]nc3N2)cc1 (stereo not drawn) |
| 177 to 179 | CS(=O)(=O)c1ccc(-c2c(-c3ccccc3)nc3n2CCS3)cc1 |
| 93 to 96 | O=C(c1ccc(Oc2cccc3ccccc23)cc1)C(O)O |
| 218 | N#Cc1cc(NC(=O)c2cc3ccccc3s2)ccc1N1CCC(CCO)CC1 |
| 165 to 167 | c1ccc(-c2nc3ccccc3n3cncc23)cc1 |
| 204 | CCCCOc1ccc(S(=O)(=O)C2(C(=O)O)CCN(CCOc3ccccc3)CC2)cc1 |
| 156 | CN(N)c1nc(-c2ccccc2)c2cc(Cl)ccc2n1 |
| 169 to 171 | Nc1c(C(=O)O)cnn1-c1ccc(Cl)cc1 |
| 238 to 239 | CCOc1nc2ccc(Cl)cc2c(-c2ccccc2)c1NC(=O)Nc1ccc(F)cc1F |
| 217 | CCCc1c(O)n2c3c(=O)n(C)c(=O)n(C)c3nc2n(Cc2ccccc2)c1=O |
| 140 | NC(=O)c1cc(OCCNCc2ccccc2)ccc1O |
| 150 to 152 | CC1(C)CC(NC(=O)Nc2ccccc2)c2cc(C#N)ccc21 (stereo not drawn) |
| 148 to 149 | CCOC(=O)c1cnn2c(-c3ccccc3C(F)(F)F)ccnc12 |
| 188 to 189 | CC(=O)N(C)c1ccccc1CS(=O)c1nccn1-c1ccccn1 (stereo not drawn) |
| 92 to 94 | COc1ccc2c(C=O)cccc2c1C(F)(F)F |
| 122 | Cc1nc2ccccn2c(=O)c1CCN1CCC(C(=O)c2ccccc2)CC1 |
| 207 to 210 | O=P(O)(O)Cc1cc(Cl)c(Oc2ccc(O)c(Cc3ccc(F)cc3)c2)c(Cl)c1 |
| 101 | COC(=O)C(=CN(C)C)N(C)c1cccc(-c2ccc(Cl)cc2)n1 |
